Laboratory results taken from the supplement of paper PMC10307832.

Columns and labels:
Assay in all cases: relative viability (nuclei count vs DMSO), 5 days (fraction); higher = more cells survive
Quizartinib + Foretinib = compound: CC(C)(C)c1cc(NC(=O)Nc2ccc(-c3cn4c(n3)sc3cc(OCCN5CCOCC5)ccc34)cc2)no1 [Quizartinib] + COc1cc2c(Oc3ccc(NC(=O)C4(C(=O)Nc5ccc(F)cc5)CC4)cc3F)ccnc2cc1OCCCN1CCOCC1 [Foretinib] (partner 0.25 µM)
Outline: (§1)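 Lung cancer cell lines, seeded in 1536-well plates, were treated the following day by pin tool with a single drug or with five library-drug doses (not always all listed) in √10 steps on top of a fixed anchor-drug dose. Cells were fixed and nuclei stained in one step after 5 days, and nuclei were counted. Relative viability is the nuclei count for treated wells divided by that for vehicle wells, reported as medians of duplicate plates.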

YM155 + Navitoclax = compound: COCC[n+]1c2c(n(Cc3cnccn3)c1C)C(=O)c1ccccc1C2=O [YM155] + CC1(C)CCC(c2ccc(Cl)cc2)=C(CN2CCN(c3ccc(C(=O)NS(=O)(=O)c4ccc(N[C@H](CCN5CCOCC5)CSc5ccccc5)c(S(=O)(=O)C(F)(F)F)c4)cc3)CC2)C1 [Navitoclax] (partner 0.5 µM)
Outline: as §1

YM155 + Trametinib = compound: COCC[n+]1c2c(n(Cc3cnccn3)c1C)C(=O)c1ccccc1C2=O [YM155] + CC(=O)Nc1cccc(-n2c(=O)n(C3CC3)c(=O)c3c(Nc4ccc(I)cc4F)n(C)c(=O)c(C)c32)c1 [Trametinib] (partner 0.02 µM)
Outline: as §1

Quizartinib + Vorinostat = compound: CC(C)(C)c1cc(NC(=O)Nc2ccc(-c3cn4c(n3)sc3cc(OCCN5CCOCC5)ccc34)cc2)no1 [Quizartinib] + O=C(CCCCCCC(=O)Nc1ccccc1)NO [Vorinostat] (partner 1 µM)
Outline: as §1

In the case of LOU-NH91, the relative viability (Quizartinib + Foretinib; first compound 0.001 µM) is reported as 0.967, the relative viability (Quizartinib + Foretinib; first compound 0.003162 µM) is reported as 0.903 and the relative viability (Quizartinib + Foretinib; first compound 0.01 µM) is reported as 0.906. It also gave a relative viability (Quizartinib + Foretinib; first compound 0.03162 µM) of 0.902, a relative viability (Quizartinib + Foretinib; first compound 0.1 µM) of 1.02 and a relative viability (YM155 + Navitoclax; first compound 0.002 µM) of 0.748. The relative viability (YM155 + Navitoclax; first compound 0.006325 µM) was 0.677, the relative viability (YM155 + Navitoclax; first compound 0.02 µM) was 0.725 and the relative viability (YM155 + Navitoclax; first compound 0.06325 µM) was 0.716. The relative viability (YM155 + Trametinib; first compound 0.002 µM) was 0.8, the relative viability (YM155 + Trametinib; first compound 0.006325 µM) was 0.747 and the relative viability (YM155 + Trametinib; first compound 0.02 µM) was 0.807. It also gave a relative viability (YM155 + Trametinib; first compound 0.06325 µM) of 0.788, a relative viability (Quizartinib + Vorinostat; first compound 0.001 µM) of 0.86 and a relative viability (Quizartinib + Vorinostat; first compound 0.003162 µM) of 1.04. The relative viability (Quizartinib + Vorinostat; first compound 0.01 µM) was 0.899, the relative viability (Quizartinib + Vorinostat; first compound 0.03162 µM) was 0.721 and the relative viability (Quizartinib + Vorinostat; first compound 0.1 µM) was 1.12.
